Values of other authors as cited in patent EP3072529B1, “COMPOSITION COMPRISING VEMURAFENIB AND HPMC-AS” (ratiopharm GmbH, priority 2015, dated 2016).

Conditions: reported

CCCS(=O)(=O)Nc1ccc(F)c(C(=O)c2c[nH]c3ncc(-c4ccc(Cl)cc4)cc23)c1F [Vemurafenib base, propane-1-sulfonic acid {3-[5-(4-chlorophenyl)-1H-pyrrolo[2,3-b]pyridine-3-carbonyl]-2,4-difluorophenyl}-amide]
solubility in aqueous and physiological solvents: practically insoluble
